Where two headings read alike, the source gives them in different places.
How the values were obtained:
Assay type in all cases: cell-based
[1] = molecular target: T1, hGPR65 (Homo sapiens, UniProt Q8IYL9); test: cAMP detection in HeLa expression cell line, hGPR65; details: for Emax: HeLa, relative to 100uM forskolin (100%) and DMSO (0%), read-out: hGPR Max Activity %
T1 construct: expressed in transfected cells; host or cells: HeLa (ATCC CCL-2), lentiviral transduction, pLX317
In short: (§1)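 Lentivirally transduced HeLa, V5-tagged GPCR, puromycin 3 μg/ml. 1500 cells/well, stimulation buffer pH 7.2, compound (10 mM DMSO stock), 30 min RT. Lyse, detection reagents 1 h dark RT. TR-FRET cAMP kit, ex 337, em 620/665.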

[2] = molecular target: T2, mGPR65-SmBiT (Mus musculus, UniProt Q61038); test: Nano-BiT target engagement, LgBiT-mGs recruitment to mGPR65-SmBiT; details: 10 μM
T2 construct: expressed in transfected cells; host or cells: Expi293F (Gibco), transient transfection
Method: (§2) Target engagement was measured in Expi293F (Gibco, 100044202) cells using the Nano-Glo Live Cell Assay System (Promega, N2011). Nano-BiT plasmids were cloned from GPR65-, GPR4-, and GPR68-Tango plasmids. GPR65-Tango (Addgene plasmid # 66370; http://n2t.net/addgene:66370; RRID:Addgene_66370), GPR4-Tango (Addgene plasmid # 66358; http://n2t.net/addgene:66358; RRID:Addgene_66358), and GPR68-Tango (Addgene plasmid # 66371; http://n2t.net/addgene:66371; RRID:Addgene_66371) were gifts from Bryan Roth. Expi293F cells were transfected 1 day before kinetics with 500 ng of each plasmid using ExpiFectamine 293 Transfection Kit (Gibco, A14525). After 24 hours, cells were collected, washed, and resuspended in room temperature 0.1% PBS-BSA, adjusted to pH 7.4 using 1 M NaOH. Cells were transferred to white opaque 96-well microplates (100 μl per well, PerkinElmer, 6005290), followed by addition of the Nano-Glo Live Cell Reagent (25 μl per well). Baseline luminescence was measured for 10 cycles (1 cycle = 90 s) before adding compounds. All luminescence measurements were made on BMG Labtech PHERAstar FSX. Data analysis was performed using GraphPad Prism.

[3] = molecular target: T3, hGPR65-SmBiT (Homo sapiens, UniProt Q8IYL9); test: Nano-BiT target engagement, LgBiT-mGs recruitment to hGPR65-SmBiT in Expi293F cells
T3 construct: expressed in transfected cells; host or cells: Expi293F (Gibco), transient transfection
Method: as §2

[4] = molecular target: T4, mGPR65 (Mus musculus, UniProt Q61038); test: cAMP detection in HeLa expression cell line, mGPR65; details: for Emax: HeLa, relative to 100uM forskolin (100%) and DMSO (0%), read-out: mGPR Max Activity %
T4 construct: expressed in transfected cells; host or cells: HeLa (ATCC CCL-2), lentiviral transduction, pLX317
In short: as §1

[5] = molecular target: T5, hGPR4-SmBiT (Homo sapiens, UniProt P46093); test: Nano-BiT target engagement, LgBiT-mGs recruitment to hGPR4-SmBiT; details: 10 μM
T5 construct: expressed in transfected cells; host or cells: Expi293F (Gibco), transient transfection
Method: as §2

[6] = 1st hGPR column pair, NA = no activity
[7] = 2nd hGPR column pair, NA = no activity
[8] = 2nd mGPR column pair, NA = no activity

T4 sequence (Q61038 whole entry): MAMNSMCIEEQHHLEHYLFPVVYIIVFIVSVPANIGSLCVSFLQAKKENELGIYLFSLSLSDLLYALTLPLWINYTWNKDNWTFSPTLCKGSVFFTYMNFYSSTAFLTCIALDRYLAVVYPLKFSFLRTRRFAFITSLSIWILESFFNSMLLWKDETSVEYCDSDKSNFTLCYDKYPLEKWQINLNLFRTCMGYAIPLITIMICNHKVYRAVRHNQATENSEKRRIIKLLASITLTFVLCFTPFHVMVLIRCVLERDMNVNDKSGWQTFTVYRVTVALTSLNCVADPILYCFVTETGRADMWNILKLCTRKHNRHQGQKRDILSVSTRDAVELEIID
T2 sequence (Q61038 whole entry): as above
T3 sequence (Q8IYL9 whole entry): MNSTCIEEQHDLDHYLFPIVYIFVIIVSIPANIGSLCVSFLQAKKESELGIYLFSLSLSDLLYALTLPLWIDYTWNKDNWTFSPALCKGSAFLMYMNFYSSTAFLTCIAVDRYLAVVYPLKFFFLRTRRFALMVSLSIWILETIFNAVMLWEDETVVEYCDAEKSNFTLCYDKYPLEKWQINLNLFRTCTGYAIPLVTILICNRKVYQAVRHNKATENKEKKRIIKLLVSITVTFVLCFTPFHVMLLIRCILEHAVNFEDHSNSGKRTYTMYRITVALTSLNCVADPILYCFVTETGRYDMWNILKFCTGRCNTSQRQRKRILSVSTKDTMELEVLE
T1 sequence (Q8IYL9 whole entry): as above
T5 sequence (P46093 whole entry): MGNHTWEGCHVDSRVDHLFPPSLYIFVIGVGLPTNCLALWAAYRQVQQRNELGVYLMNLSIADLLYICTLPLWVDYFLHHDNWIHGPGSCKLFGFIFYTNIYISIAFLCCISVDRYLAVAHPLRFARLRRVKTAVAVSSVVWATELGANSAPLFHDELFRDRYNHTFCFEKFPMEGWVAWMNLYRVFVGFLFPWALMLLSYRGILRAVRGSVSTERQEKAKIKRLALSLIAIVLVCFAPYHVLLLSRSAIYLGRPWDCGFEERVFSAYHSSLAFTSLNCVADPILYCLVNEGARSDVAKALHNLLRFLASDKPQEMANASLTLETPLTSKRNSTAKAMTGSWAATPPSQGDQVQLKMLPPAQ

Cc1ccc(NC(=O)c2cnn3c(O)cc(-c4ccc(COC(C)C)cc4)nc23)nc1 [BRD5075, O=C(NC1=NC=C(C)C=C1)C2=C3N(N=C2)C(O)=CC(C4=CC=C(COC(C)C)C=C4)=N3] was tested, and the “mode of action from pH-dependent cAMP production” value ([1]; 0 to 50 μM, pH range of 6.6 to 7.6) was “PAMs”, the “activity for hGPR65 among prioritized molecules” value ([1]; 1.56 μM, pH 7.2) was “highest activity” and the Emax [1, 6] was 80.3%. It also gave an Emax [1, 7] of 78.6%, an EC50 ([1]; hGPR EC50 (uM), NA = no activity) of 0.377 µM and an EC50 ([1]; hGPR EC50 (uM), pH 7.2, 30 min) of 1.2 µM. The EC50 ([1]; hGPR EC50, NA = no activity) was 1.1 µM, the EC50 ([1]; hGPR EC50, pH 7.2, 30 min) was 0.699 µM and the “cAMP activity, hGPR65” value ([1]; pH 7.2) was “at least 40%”. The “mGs recruitment / engagement of mGPR65” value [2] was “showed engagement”, the “activity after HCl versus water, mGPR65” value ([2]; HCl or H2O at cycle 10) was “showed activity when preceded by the addition of HCl but not water” and the “effect of concentration on mGs recruitment” value ([3]; 0-50 μM) was “dose-dependent effect”. The “mGs recruitment / engagement of hGPR65” value ([3]; 10 μM) was “showed engagement”, the “activity after HCl versus water, hGPR65” value ([3]; 10 μM, HCl or H2O at cycle 10) was “showed activity when preceded by the addition of HCl but not water” and the “activity for mGPR65 among prioritized molecules” value ([4]; 1.56 μM, pH 7.2) was “highest activity”. For the same compound, the “cAMP response against mGPR65 among prioritized compounds” value ([4]; HeLa cells) was “highest cAMP response”, the Emax [4, 8] was 69.6% and the Emax ([4]; NA = no activity) was 70.8%. It also gave an EC50 ([4]; mGPR EC50 (uM), 2nd mGPR column pair, NA = no activity) of 0.952 µM, an EC50 ([4]; mGPR EC50 (uM), first pair of columns, pH 7.2, 30 min) of 1.04 µM and an EC50 ([4]; mGPR EC50 (uM), second pair of columns, pH 7.2, 30 min) of 0.997 µM. For the same compound, the EC50 ([4]; mGPR EC50 (uM), NA = no activity) was 0.892 µM, the “cAMP activity, mGPR65” value ([4]; pH 7.2) was “at least 40%” and the “response in cells expressing hGPR4-SmBiT” value [5] was “failing to elicit responses”.
With CN1N=C(SCc2ccc(Cl)cc2Cl)Sc2c1cnn(C)c2=O [BTB09089, reference compound] the EC50 ([1]; 1st hGPR column pair, NA = no activity, read-out: hGPR EC50) was 6.35 µM, the EC50 ([1]; 2nd hGPR column pair, NA = no activity, read-out: hGPR EC50) was 1.37 µM and the Emax [1, 6] was 53.5%. The Emax [1, 7] was 31.1%, the “mGs recruitment / engagement of mGPR65” value [2] was “increases in luminescence independent of pH changes” and the “mGs recruitment / engagement of hGPR65” value ([3]; 10 μM) was “limited activity toward hGPR65”. The EC50 ([4]; 2nd mGPR column pair, NA = no activity, read-out: mGPR EC50) was 0.458 µM, the Emax [4, 8] was 76.4% and the Emax ([4]; NA = no activity) was 82.8%.

Source: publication PMC11259170, “Small-molecule probe for IBD risk variant GPR65 I231L alters cytokine signaling networks through positive allosteric modulation” (Science Advances, 2024)
